Assay results published in US8236761B2, “C-Met receptor regulation by angiotensin IV (AT4) receptor ligands” (Washington State University Research Foundation, priority 2006, dated 2012).
Non-standard residues stand in square brackets, D forms with d. No end group written: not given here. Nle = CCCC[C@H](N)C(=O)O

Key:
c-Met = c-Met (Homo sapiens, UniProt P08581); test: Immunoprecipitation/Western blot of HGF-dependent c-Met and Gab1 phosphorylation and association in HEK293 cells; type: cell-based; set-up: host or cells: HEK293; settings: HEK293 cells, 10 minutes
Sequence of c-Met (P08581 308-1390 limits assumed): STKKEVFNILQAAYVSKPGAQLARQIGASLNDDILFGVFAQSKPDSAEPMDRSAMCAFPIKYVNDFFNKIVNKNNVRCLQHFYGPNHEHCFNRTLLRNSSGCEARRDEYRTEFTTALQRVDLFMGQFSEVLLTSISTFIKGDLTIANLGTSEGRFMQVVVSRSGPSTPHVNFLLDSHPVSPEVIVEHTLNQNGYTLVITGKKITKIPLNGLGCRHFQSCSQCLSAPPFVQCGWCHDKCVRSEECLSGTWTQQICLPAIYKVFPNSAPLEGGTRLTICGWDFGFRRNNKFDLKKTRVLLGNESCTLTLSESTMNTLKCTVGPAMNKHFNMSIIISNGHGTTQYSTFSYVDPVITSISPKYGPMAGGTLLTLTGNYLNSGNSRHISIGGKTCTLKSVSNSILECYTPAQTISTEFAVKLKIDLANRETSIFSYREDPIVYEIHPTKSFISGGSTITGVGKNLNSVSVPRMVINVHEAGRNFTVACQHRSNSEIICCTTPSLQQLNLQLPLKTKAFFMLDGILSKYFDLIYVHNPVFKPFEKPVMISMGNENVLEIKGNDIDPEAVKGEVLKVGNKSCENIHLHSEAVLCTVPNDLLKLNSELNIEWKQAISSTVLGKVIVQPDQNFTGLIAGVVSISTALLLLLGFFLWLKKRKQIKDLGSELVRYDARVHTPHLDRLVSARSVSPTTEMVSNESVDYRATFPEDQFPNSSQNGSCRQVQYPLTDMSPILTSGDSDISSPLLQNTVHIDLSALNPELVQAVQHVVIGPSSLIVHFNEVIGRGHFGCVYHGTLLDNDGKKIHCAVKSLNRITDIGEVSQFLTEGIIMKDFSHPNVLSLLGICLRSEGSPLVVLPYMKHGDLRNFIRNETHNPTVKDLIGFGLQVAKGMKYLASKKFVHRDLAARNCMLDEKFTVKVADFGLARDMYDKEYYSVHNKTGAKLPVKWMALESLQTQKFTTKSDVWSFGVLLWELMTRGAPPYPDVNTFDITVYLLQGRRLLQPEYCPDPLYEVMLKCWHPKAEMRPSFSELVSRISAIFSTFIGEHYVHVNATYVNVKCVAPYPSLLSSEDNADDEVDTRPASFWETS
Sequence of c-Met (P08581 25-307 limits assumed): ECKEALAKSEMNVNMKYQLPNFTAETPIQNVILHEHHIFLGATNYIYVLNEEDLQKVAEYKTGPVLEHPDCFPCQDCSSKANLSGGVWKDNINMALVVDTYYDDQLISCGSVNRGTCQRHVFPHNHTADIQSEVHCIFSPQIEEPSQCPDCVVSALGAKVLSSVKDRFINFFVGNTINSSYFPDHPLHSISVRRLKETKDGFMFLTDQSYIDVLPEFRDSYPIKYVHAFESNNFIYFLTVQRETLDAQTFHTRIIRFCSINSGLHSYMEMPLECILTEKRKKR
Method: (FIG. 5A) HEK293 cells were treated for 10 minutes with HGF at indicated concentrations. Lysates were immunoprecipitated (IP) with anti-c-Met antibody (DO-24) and immunoblotted (IB) with anti-c-Met or anti-phospho-tyrosine (06-427) antibody. (FIG. 5B) HEK293 cells were treated for 10 minutes with HGF and/or Norleual. Lysates were IP with anti-c-Met (DO-24) and IB with anti-c-Met (DQ-13) or anti-phospho-tyrosine (HAM 1676). (FIG. 5C) HEK293 lysates were IP with anti-c-Met (DO-24) and IB with anti-Gab1. (FIG. 5D) HEK 293 lysates were IP with anti-Gab1 and IB with anti-Gab1 or anti-phospho-tyrosine (HAM 1676). (FIGS. 5E, 5F, 5G) Relative amounts (normalized to % total c-Met in IP) of quantified IP/IB band intensities for control, 110 pM HGF-, 110 pM HGF and 20 pM Norleual-, and 20 pM Norleual-treated HEK293 cells for phospho-c-Met (FIG. 5E, n=4), phospho-Gab1 (FIG. 5F, n=4), and c-Met associated Gab1 (FIG. 5G, n=3). Error bars indicate ±SD.
HEK293 cells were treated for 10 minutes with HGF and/or Norleual at the indicated concentrations. Lysates were IP with anti-c-Met (DO-24, Millipore/Upstate, Billerica, Mass.) and IB with anti-c-Met (DQ-13, Millipore/Upstate) or anti-phosphotyrosine (HAM1676, lot JLB03, R&D Systems, Inc., Minneapolis, Minn.).
Immunoprecipitation and Western blotting. Cells were serum starved for two hours in DMEM before treatment. Cells were harvested using RIPA lysis buffer (Upstate Biotechnol. Inc., Lake Placid, N.Y.) with phosphatase inhibitor cocktails 1 and 2 (Sigma, St Louis, Mo., USA). Protein concentration was determined using the BCA assay (Pierce, Rockford, Ill., USA). Lysates were incubated with antibody overnight at 4° C. Immunoprecipitation controls received mouse non-specific Ig (Upstate). Proteins were captured with protein-A agarose (Upstate) and were washed with PBS. Proteins were resolved using SDS-PAGE electrophoresis (Criterion, BioRad, Hercules, Calif., USA), transferred to nitrocellulose, and incubated with appropriate antibodies. Proteins were visualized using the Supersignal West Pico Chemiluminescent Substrate system (Pierce). The film images were digitized and analyzed using TotalLab® software (AmershamPharmacia/GE HealthCare, Piscataway, N.J.).
Whether the interaction of Norleual with the c-Met receptor had functional consequences regarding c-Met signaling was next investigated by determining whether Norleual could alter the phosphorylation status of cellular protein tyrosine phosphate (FIG. 4) and more specifically, of c-Met (i.e., c-Met activation), and also whether Norleual could modulate Gab1 association with c-Met. Human embryonic kidney HEK293 cells were activated by HGF in the presence or absence of Norleual. Solubilized membranes were immunoprecipitated (IP) with an anti-c-Met antibody and immunoblotted (IB) for total c-Met, anti-phospho-tyrosine to detect the activated form of c-Met, and anti-Gab1 to detect c-Met/Gab1 association. […] To confirm these findings, treated HEK293 lysates were precipitated with anti-Gab1 and blotted for total Gab1 and phospho-Gab1, its activated form. Again, Norleual inhibited HGF-induced Gab1 phosphorylation (FIGS. 5D, […]).

c-Met receptor = test: Cross-linking of 125I-COMPOUND 2 or 125I-HGF to HEK293 cell membranes with unlabeled competitor; type: binding, human; settings: cross-linked, 1 nM competitor
Method: (§1) FIG. 3C: ^125I-Norleual was bound to HEK membranes in the presence or absence of 1.5 nM HGF (n=8) or 1 μM Norleual (n=6). Total binding is reported as percent control (n=10), (*p<0.001). Error bars indicate±SD. […] Error bars indicate SD and data points were performed in duplicate.
Briefly, COMPOUND 2 was iodinated with […] and bound and cross-linked to HEK cell membranes with or without 1 nM COMPOUND 2 or 1 nM hepatocyte growth factor. Following solubilization and separation of free label by molecular sieving, total radioactive counts were determined. The ability of the ligand COMPOUND 2 to compete with hepatocyte growth factor binding to the c-Met receptor was also tested using mouse liver plasma membranes and intact HEK293 cells. Briefly, mouse liver was homogenized and incubated with ^125I-HGF with various concentrations of HGF or COMPOUND 2. Membranes were pelleted and unbound label was removed by washing, and total radioactive counts were determined. Next, HEK293 cell membranes were cross-linked with ^125I-HGF with unlabeled HGF or COMPOUND 2.

[1] = tested on: HEK293 cell membranes (c-Met system); test: 125I-Norleual binding assay, HEK293 cell membranes; set-up: species or system human; settings: 1.5 nM HGF or 1 μM Norleual
Method: as §1
^125I-Norleual binding assay. HEK293 cells were grown to confluency in DMEM fortified with 10% FBS. Media was aspirated and cells were washed twice with ice-cold PBS. Cells were lysed with hypotonic buffer and homogenized as described by Zhang et al. (1999, J. Pharmacol. Exp. Ther. 289: 1075-1083; 2003 J. Cell Biochem. 88: 408-417). 450 μg of membrane protein was incubated with 1.5 nM ^125I-Norleual with or without Norleual or HGF in a total volume of 250 μl PBS, 0.1% BSA. Tubes were spun and binding was carried out for 60 minutes at RT. Bound and free ligands were separated by vacuum filtration using (Brandel Cell Harvester, Schleicher & Schull, Keene, N.H., USA) 32 glass filters. Radioactivity retained by the filters was measured using a gamma counter. […] Data analysis was preformed using Prism software (GraphicPad) per the supplier's recommendations.
Materials and methods were as described in Example 1. In separate tests of unlabeled competitors, both Norleual and HGF competed with ^125I-HGF for high affinity binding to mouse liver plasma membranes (FIGS. 2A, 2B). […]

neovascularization = test: Disc angiogenesis assay (subcutaneous sponge disc); type: in vivo, Sprague Dawley rats; settings: 50 μg per disc core, 14 days, rat
Method: FIG. 19 depicts effects on angiogenesis of angiotensin-like factors in a rat in vivo disc angiogenesis assay. Vascularization was quantified by digital image analysis of fixed and stained discs recovered from animals 14 days after subcutaneous implantation of sponge discs containing the indicated compounds.
Disc Angiogenesis Assay. […] A 2 mm core was removed from the center of each disc, saturated with 50 μg of Nle^1-AngIV (SEQ ID NO:41), Nle^1-Leu^3-Ψ(CH2NH2)^3-4-AngIV, Hexamide, or ethanol (control), air dried, then sealed using a fixative (Elvax, DuPont) to allow sustained delivery of the drug treatment into the disc and adjacent tissues. The cores were dried for 30 min, then reinserted into the sponge discs. Impermeable top and bottom covers were prepared by coating 10 mm diameter paper discs with a plexiglass coating, then glued to the top and bottom of the sponge discs, leaving only the rim of the disc available for centripetal cellular penetration. Just prior to implantation, the discs were soaked briefly in sterile saline.
Thirty-two Sprague Dawley female rats (225-275 gr) were used to evaluate four compounds for angiogenic or anti-angiogenic properties using the disc angiogenesis assay. Animals were anesthetized using sodium pentobarbital (40 mg/kg IP). The dorsum was then shaved and aseptically prepped. Each animal received four discs. Animals receiving treated discs were implanted with 2 treated discs and 2 ethanol-soaked control discs. Thus, in a group of 4 animals there were 8 treatment discs, and 8 control discs. These control discs were used to determine whether the ligand had potential systemic effects. Another group of 4 animals received only ethanol-soaked control discs (spontaneous growth controls or SGC discs) for an n=16. However, one SGC was fragmented during processing leaving an n=15.
Four 2 cm cutaneous incisions were made along the dorsum (left thoracic, right thoracolumbar, left thoracolumbar, and right lumbar), and subcutaneous pouches opened in the fascia using blunt dissection. Discs were moistened in sterile saline, inserted deep to the pouch, and the skin closed with sterile surgical staples. Animals were recovered under heat lamps until sternally recumbent, then individually housed for 14 days in an AAALAC accredited facility (water and food ad libitum; 12/12 hour light cycle).
After 14 days the animals were euthanized in a CO2 chamber and the discs were removed. […] Cellular penetration into the discs was quantified using a digital imaging system (Imaging Research Inc., St. Catharines, Ontario, Canada). The total area of the disc was calculated, as was the area containing stained cells. […]
Results. Following staining with toludine blue or Factor VIII, neovascularization was quantitated by densitometry.

human endothelial cells = test: Proliferation and migration of human endothelial cells; type: cell-based

Concentration at which c-Met auto-phosphorylation saturates (c-Met) [pM]	Substance	Effect on 125I-COMPOUND 2 binding to HEK cells (c-Met receptor)	Competition for 125I-Norleual specific binding to HEK293 cell membranes [1]	Effect on angiogenesis in disc assay versus SGC discs (neovascularization)	Proliferation and migration of human endothelial cells (human endothelial cells)
550	HGF: Hepatocyte growth factor (SEQ ID NO:83), purchased from R&D systems; native ligand of the c-Met receptor	blocked	competed		
	Nle-Tyr-Ile-6(amino) hexanoic acid amide [Compound 4]			antagonist activity	
	Nle-Tyr-Ile-His-Pro-Phe ([Nle]YIHPF) [Compound 1]			lone AT4 receptor agonist	augmented
	Nle-Tyr-Ile-His ([Nle]YIH) [Compound 3]			antagonist activity	
